Results taken from the supplement of paper PMC10883282.

What was measured:
Test in all cases: relative viability vs DMSO control (72 h) (fraction); higher = more viable cells
KHOS-NP = tested on: KHOS-NP
Summary of the method: (§1)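 Sarcoma cell lines were grown in 384-well plates seeded toward 80–90% confluence and exposed 24 h later to serially diluted compound. After 72 h at 37 °C and 5% CO2, with 0.1% DMSO vehicle and a 5 µM positive control on the plates, ATPLite was read. Relative viability, given as percent growth averaged over up to triplicate wells, was rescaled so that 1 is full and 0 is none.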

A204 = tested on: A204
Summary of the method: as §1

HS729 = tested on: HS729
Summary of the method: as §1

HT1080 = tested on: HT1080
Summary of the method: as §1

SW1353 = tested on: SW1353
Summary of the method: as §1

MES-SA = tested on: MES-SA
Summary of the method: as §1

G401 = tested on: G401
Summary of the method: as §1

SYO-1 = tested on: SYO-1
Summary of the method: as §1

SK-LMS-1 = tested on: SK-LMS-1
Summary of the method: as §1

SW872 = tested on: SW872
Summary of the method: as §1

SW684 = tested on: SW684
Summary of the method: as §1

VA-ES-BJ = tested on: VA-ES-BJ
Summary of the method: as §1

Cc1[nH]c(/C=C2\C(=O)Nc3ccc(F)cc32)c(C)c1C(=O)NCCN1CCCC1 [Toceranib]
Settings	relative viability
A204, 68 pM	1.05
A204, 0.000203 µM	1.01
A204, 0.0006 µM	1.06
A204, 0.0018 µM	1.08
A204, 0.0055 µM	1.03
A204, 0.0165 µM	0.938
A204, 0.0494 µM	0.633
A204, 0.1481 µM	0.442
A204, 0.444 µM	0.394
A204, 1.333 µM	0.355
A204, 4 µM	0.327
G401, 68 pM	0.991
G401, 0.000203 µM	0.978
G401, 0.0006 µM	0.979
G401, 0.0018 µM	0.983
G401, 0.0055 µM	0.974
G401, 0.0165 µM	0.918
G401, 0.0494 µM	0.941
G401, 0.1481 µM	0.924
G401, 0.444 µM	0.938
G401, 1.333 µM	0.912
G401, 4 µM	0.787
HS729, 68 pM	0.982
HS729, 0.000203 µM	0.926
HS729, 0.0006 µM	0.901
HS729, 0.0018 µM	0.859
HS729, 0.0055 µM	0.84
HS729, 0.0165 µM	0.778
HS729, 0.0494 µM	0.765
HS729, 0.1481 µM	0.729
HS729, 0.444 µM	0.715
HS729, 1.333 µM	0.59
HS729, 4 µM	0.414
HT1080, 68 pM	1.09
HT1080, 0.000203 µM	1.06
HT1080, 0.0006 µM	1.116
HT1080, 0.0018 µM	1.07
HT1080, 0.0055 µM	1.076
HT1080, 0.0165 µM	1.04
HT1080, 0.0494 µM	1.09
HT1080, 0.1481 µM	1
HT1080, 0.444 µM	1.1
HT1080, 1.333 µM	1.14
HT1080, 4 µM	0.868
KHOS-NP, 68 pM	1.09
KHOS-NP, 0.000203 µM	1.106
KHOS-NP, 0.0006 µM	1.0967
KHOS-NP, 0.0018 µM	1.08
KHOS-NP, 0.0055 µM	1.07
KHOS-NP, 0.0165 µM	1.07
KHOS-NP, 0.0494 µM	1.03
KHOS-NP, 0.1481 µM	1.02
KHOS-NP, 0.444 µM	1.02
KHOS-NP, 1.333 µM	1
KHOS-NP, 4 µM	0.775
MES-SA, 68 pM	0.932
MES-SA, 0.000203 µM	0.9214
MES-SA, 0.0006 µM	0.926
MES-SA, 0.0018 µM	0.899
MES-SA, 0.0055 µM	0.915
MES-SA, 0.0165 µM	0.919
MES-SA, 0.0494 µM	0.9
MES-SA, 0.1481 µM	0.919
MES-SA, 0.444 µM	0.884
MES-SA, 1.333 µM	0.751
MES-SA, 4 µM	0.44
SK-LMS-1, 68 pM	0.939
SK-LMS-1, 0.000203 µM	0.944
SK-LMS-1, 0.0006 µM	0.972
SK-LMS-1, 0.0018 µM	0.968
SK-LMS-1, 0.0055 µM	0.941
SK-LMS-1, 0.0165 µM	0.946
SK-LMS-1, 0.0494 µM	0.906
SK-LMS-1, 0.1481 µM	0.921
SK-LMS-1, 0.444 µM	0.893
SK-LMS-1, 1.333 µM	0.81
SK-LMS-1, 4 µM	0.717
SW684, 68 pM	1.1
SW684, 0.000203 µM	1.178
SW684, 0.0006 µM	1.13
SW684, 0.0018 µM	1.13
SW684, 0.0055 µM	1.14
SW684, 0.0165 µM	1.1
SW684, 0.0494 µM	1.15
SW684, 0.1481 µM	1.14
SW684, 0.444 µM	1.12
SW684, 1.333 µM	0.956
SW684, 4 µM	0.755
SW872, 68 pM	1.05
SW872, 0.000203 µM	1.05
SW872, 0.0006 µM	1.03
SW872, 0.0018 µM	0.982
SW872, 0.0055 µM	0.954
SW872, 0.0165 µM	0.971
SW872, 0.0494 µM	0.944
SW872, 0.1481 µM	0.939
SW872, 0.444 µM	0.886
SW872, 1.333 µM	0.65
SW872, 4 µM	0.521
SW1353, 68 pM	1.07
SW1353, 0.000203 µM	1.02
SW1353, 0.0006 µM	1.02
SW1353, 0.0018 µM	0.987
SW1353, 0.0055 µM	0.994
SW1353, 0.0165 µM	0.973
SW1353, 0.0494 µM	0.964
SW1353, 0.1481 µM	0.928
SW1353, 0.444 µM	0.934
SW1353, 1.333 µM	0.96
SW1353, 4 µM	0.893
SYO-1, 68 pM	0.931
SYO-1, 0.000203 µM	0.887
SYO-1, 0.0006 µM	0.835
SYO-1, 0.0018 µM	0.806
SYO-1, 0.0055 µM	0.721
SYO-1, 0.0165 µM	0.64
SYO-1, 0.0494 µM	0.587
SYO-1, 0.1481 µM	0.603
SYO-1, 0.444 µM	0.576
SYO-1, 1.333 µM	0.482
SYO-1, 4 µM	0.357
VA-ES-BJ, 68 pM	1.07
VA-ES-BJ, 0.000203 µM	1.05
VA-ES-BJ, 0.0006 µM	1.04
VA-ES-BJ, 0.0018 µM	1.03
VA-ES-BJ, 0.0055 µM	1.04
VA-ES-BJ, 0.0165 µM	1.01
VA-ES-BJ, 0.0494 µM	0.987
VA-ES-BJ, 0.1481 µM	1
VA-ES-BJ, 0.444 µM	0.961
VA-ES-BJ, 1.333 µM	0.859
VA-ES-BJ, 4 µM	0.675
